Tests used:
Assay in all cases: relative viability (nuclei count vs DMSO), 5 days (fraction); higher = more cells survive
Carboplatin + Trametinib = compound: C1CC(C1)(C(=O)O)C(=O)O.[NH2-].[NH2-].[Pt+2] [Carboplatin] + CC(=O)Nc1cccc(-n2c(=O)n(C3CC3)c(=O)c3c(Nc4ccc(I)cc4F)n(C)c(=O)c(C)c32)c1 [Trametinib] (partner 0.02 µM)
Procedure, shortened: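 A single step with final 0.05% Triton X-100, 1% formaldehyde and 1 ug/ml Hoechst fixed the cells and stained nuclei 5 days after treatment. Lung cancer cell lines in 1536-well plates had been treated by pin tool the day after seeding with one drug alone or a fixed anchor-drug dose plus five library-drug doses (not always all listed) in √10 steps, and nuclei were counted on 4× images. Relative viability is the ratio of nuclei in treated wells to nuclei in vehicle wells, taken as the median of duplicate plates.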

Carboplatin = compound: C1CC(C1)(C(=O)O)C(=O)O.[NH2-].[NH2-].[Pt+2] [Carboplatin]
Procedure, shortened: (§1)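 Lung cancer cell lines received five library-drug doses (not always all listed) spaced by √10, pinned on vehicle-anchored 1536-well plates after an overnight stay at 37 °C. Five days later, with no medium change, nuclei were Hoechst-stained, imaged at 4× and counted with MetaXpress. Viability is treated-well nuclei relative to vehicle-well nuclei, as a median across plates. Passing plates had control CV below 25% and at least one doubling.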

GSK126 = compound: CC[C@H](C)N1C=C(C2=C(C=C(C=C21)C3=CN=C(C=C3)N4CCNCC4)C(=O)NCC5=C(C=C(NC5=O)C)C)C [GSK126]
Procedure, shortened: as §1

MLN4924 = compound: NS(=O)(=O)OC[C@@H]1C[C@@H](n2ccc3c(N[C@H]4CCc5ccccc54)ncnc32)C[C@@H]1O [MLN4924]
Procedure, shortened: as §1

Cell Line	relative viability (Carboplatin + Trametinib; first compound 0.08 µM)	relative viability (Carboplatin + Trametinib; first compound 0.253 µM)	relative viability (Carboplatin + Trametinib; first compound 0.8 µM)	relative viability (Carboplatin + Trametinib; first compound 2.53 µM)	relative viability (Carboplatin + Trametinib; first compound 8 µM)	relative viability (Carboplatin; 0.08 µM)	relative viability (Carboplatin; 0.253 µM)	relative viability (Carboplatin; 0.8 µM)	relative viability (Carboplatin; 2.53 µM)	relative viability (Carboplatin; 8 µM)	relative viability (GSK126; 0.08 µM)	relative viability (GSK126; 0.253 µM)	relative viability (GSK126; 0.8 µM)	relative viability (GSK126; 2.53 µM)	relative viability (GSK126; 8 µM)	relative viability (MLN4924; 0.04 µM)	relative viability (MLN4924; 0.1265 µM)	relative viability (MLN4924; 0.4 µM)	relative viability (MLN4924; 1.265 µM)	relative viability (MLN4924; 4 µM)
NCI-H1993	0.564	0.51	0.561	0.404	0.497	0.988	1.02	0.967	0.878	0.8	0.97	0.982	0.955	1.02	1.03	0.877	0.758	0.596	0.531	0.658
NCI-H1944	0.439	0.419	0.439	0.362	0.338	0.887	0.967	0.922	0.981	0.644	1.1	0.902	1	0.998	1.13	0.975	0.788	0.583	0.176	0.176
SK-LU-1	0.584	0.525	0.485	0.441	0.356	1.16	1.07	1.06	0.975	0.802	1.01	1.05	1.02	1.14	1.08	0.99	0.799	0.369	0.191	0.201
NCI-H1915	0.325	0.29	0.296	0.288	0.257	1.03	1.02	0.971	0.932	0.737	1.05	0.978	1.01	0.973	0.994	0.958	0.911	0.692	0.219	0.224
NCI-H650	1.01	1.08	1	0.849	0.818	0.988	0.874	0.959	0.864	0.668	0.991	0.962	0.939	0.914	1.03	0.618	0.668	0.268	0.183	0.194
SW 1573	0.677	0.539	0.528	0.555	0.387	1.05	1.02	0.992	0.972	0.702	1.21	1.08	1.02	1.05	1.24	1.16	0.954	0.332	0.0817	0.0856
NCI-H460	0.161	0.139	0.155	0.0949	0.0458	1.02	0.981	0.994	0.915	0.412	1.08	1.06	0.984	1.01	1.05	0.976	0.985	0.914	0.288	0.105
COR-L23	0.619	0.645	0.559	0.509	0.229	0.961	0.928	0.979	0.759	0.417	1.1	1.02	0.944	0.986	1.02	0.98	0.882	0.661	0.233	0.135
NCI-H2009	0.346	0.295	0.243	0.249	0.238	1.05	0.971	0.95	0.951	0.683	1.12	0.997	0.988	0.988	1.06	0.823	0.439	0.287	0.136	0.0977
NCI-H1563						0.963	1	1.03	0.946	1.02	1.04	0.999	1.06	1.04	0.965	1.42	1.21	0.818	0.494	0.511
NCI-H1703						1.27	1.1	0.998	1.05	1.01	1.21	0.834	0.96	1.04	1.13	0.43	0.314	0.255	0.136	0.141
ABC-1						1.04	0.873	0.985	0.88	0.587	1.11	1.03	0.992	1.15	1.05	1.06	0.965	0.384	0.249	0.283
IA-LM						1.08	1.06	0.927	0.835	0.778	1.04	0.906	0.925	0.997	0.894	0.573	0.29	0.14	0.0648	0.0764
A549						1.02	1.01	0.938	0.935	0.563	1.08	0.946	0.955	1.01	0.987	0.946	0.863	0.658	0.0802	0.0487
NCI-H1299						1.05	0.98	1.02	0.969	0.943	1.02	0.994	0.988	1	0.998	1.01	0.823	0.676	0.287	0.212
NCI-H1623						1.03	0.963	0.872	0.875	0.695	0.974	1.04	0.959	0.954	1	0.744	0.53	0.443	0.298	0.246
EBC-1						1.07	0.987	0.97	0.969	0.851	1.03	0.966	0.969	0.978	0.947	0.855	0.703	0.283	0.104	0.131
Calu-6						1.01	1.03	0.973	0.851	0.491	1.1	1.05	0.954	1.07	1.03	0.914	0.653	0.24	0.141	0.134
